# “And” between values parts separate entries of the source, which are not always exact repeats. Equal entries are not always repeated. “Also recorded” adds a separate entry of the source.
# Assays:
# [1] = system: Grade IV heart failure; assay: Compassionate treatment of patients with Grade IV heart failure awaiting heart transplantation; assay type: in vivo, human; conditions: for Cardiac output (L/m) / LVEF % / Oxygen consumption / Systolic volume: individual patients
# From the text: This is a cohort of 7 patients, who received the compassionate treatment with GHRP-6, under informed consent. All patients were in advanced heart failure, evaluated as functional class grade IV, according to the scale of the New York Heart Association. These patients were hospitalized in specialized cardiology services of two hospitals, and the ischemic heart disease, the idiopathic dilated cardiomyopathy, the heart valve disease, and the postpartum dilated cardiomyopathy were considered as the underlying condition for heart failure. […] They had minimal effort dyspnea, inability to adequately fulfill the 6 minutes' walk test, and instability in fluid balance and renal function, despite the diet control and the treatment with diuretics, the restriction of salt and the monitoring body weight.
# All patients received between 50 and 200 μg of GHRP-6/kg body weight, two or three times a day, according to medical criteria, by intravenous route. All treatments were performed while the patients were awaiting for heart transplantation. The treatment period with GHRP-6 was between 25 days and 30 days per cycle.
# A cycle of treatment with GHRP-6 was performed every three months. The maximum was three cycles. All patients were maintained with previous medical treatments, based on digital, diuretics, renin-angiotensin-aldosterone axis inhibitors (neurohormones) and pressor amines when required.
# [2] = system: AMI with ST segment elevation; assay: First cohort: patients with AMI with ST segment elevation, GHRP-6 immediately after angioplasty; assay type: in vivo, human
# Method: First cohort. Comprising 19 patients over 30 years old, of both sexes, with a diagnosis of AMI with ST segment elevation, all with occlusion of the anterior descending artery, first episode, who arrived at a cardiology department before 12 hours of implantation of the precordial pain. The average door-ball time was 6 hours. All patients received primary percutaneous transluminal angioplasty, and immediately after the culprit artery flow was restored they received treatment with GHRP-6. In some patients, the treatment was performed by intra-coronary flushing, after the flow was restored. Residual lesions occupied less than 25% of the initial occlusion area, so it was considered as a TIMI 3, according to the Coronary Risk Score known as TIMI. In other cases, the first administration was performed by a central-venous route, just at the time of reperfusion, in the hemodynamic room. GHRP-6 was administered at a dose of 100 μg/kg of body weight, twice a day, for 7 days, time spent in the coronary intensive care hospital room. […]
# [3] = system: AMI with elevated ST segment; assay: Second cohort: AMI patients with low cardiac output syndrome / cardiogenic shock, late treatment with GHRP-6; assay type: in vivo, human; conditions: for LVEF: individual patients, late treatment, echocardiography at 90 days
# Method: Second cohort. Comprising 13 patients over 30 years old, of both sexes, with a diagnosis of AMI with elevated ST segment, who received percutaneous transluminal angioplasty before 12 hours of implantation of precordial pain. All these patients evolved in an unfavorable way, and with uncertain prognosis between 24 and 96 hours after a successful endoluminal reperfusion, according to the imaging criteria all were considered as TIMI grade 3.
# This led to the decision of establishing an alternative treatment with GHRP-6, to try to reduce dyskinesia of the ventricular musculature, to attenuate the process of presumed stunning, to dampen hypoxia, and to rescue from death a territory of ischemic ventricular mass. The patients who implanted a reinfarction received rescue angioplasty. One of these patients died during the procedure. None of the patients met criteria for the coronary revascularization practice. In these cases, the first administration of the peptide was carried out at least after 48 hours of torpid evolution after a TIMI 3. During the treatment time, the GHRP-6 was administered intravenously, every 12 hours.
# [4] = system: AMI with a ST Segment elevation; assay: AMI in pigs, one hour circumflex artery clamping followed by reperfusion; assay type: in vivo, female pigs of the Yorkshire breed; conditions: for Infarction Area (%): day 10
# Method: (§1) The objective of the study was to evaluate, and to compare, the therapeutic impact of the late administration of GHRP-6 on functional parameters of the left ventricle, regarding the effect of the peptide acutely administered. Another objective was to assess the effect of late treatment in a group of animals in which the reperfusion was not performed.
# (§2) The implementation of the AMI was performed in female pigs of the Yorkshire breed, with body weight of 22-27 kg. The anesthesia was induced with propofol, midazolam and pancuronium, by intravenous route. Under general anesthesia, obtained with a mixture of isofluorane/oxygen and nitrous oxide the ischemia was provoked. It was induced by a thoracotomy between the fifth and sixth intercostal spaces, until reaching the left circumflex artery, which was occluded by a 30 mm arterial clamping for one hour. Immediately, the record of the electrocardiogram and the heart rate was taken, every 20 seconds. At the end of 60 minutes of occlusion, the clamping was released, and so began the reperfusion phase, to complete the 10 days after ischemia. For the experimental group without reperfusion, that simulates the state called as non-reflux, a permanent ligation of the circumflex artery, with surgical thread, was performed. Both procedures, clamping and permanent ligation, induce an AMI with a ST Segment elevation. The recording of heart rate and electrocardiogram continued until the superficial suture of the thorax. The animals were sacrificed, by exsanguination, on the tenth day after the ischemia episode was induced. Under an anesthetic overdose, the determination of the area of the AMI was made, by means of the calculation of the area at risk with Evans blue.
# (§3) For the echocardiographic evaluation, the pigs were previously sedated with a mixture of propofol/midazolam. A Kontron ultrasound system, Sigma 1 AC Cardio model, equipped with 3.5-7.5 MHz mechanical-cardiac sector transducers was used.
# (§4) The parameters evaluated were the following: • Left Ventricle Ejection Fraction (LVEF), estimated by the Teich method. • Left Ventricle Tele-Systolic and Tele-diastolic Pressures. • Infarction Area, estimated on the area at risk (%).
# (§5) Seven animals per group were used. In all groups, the animals received treatment every 12 hours, for 10 days after ischemia. The administrations of GHRP-6 or placebo were performed through a central catheter. In the case of the groups that received the peptide, it was diluted in 10 ml of physiological saline. The essence of the study was to evaluate the influence of the time of initiation of treatment on functional parameters and size of the ventricular not viable territory.
# [5] = system: AMI with a ST Segment elevation; assay: AMI in pigs without reperfusion (non-reflux), permanent ligation of the circumflex artery; assay type: in vivo, female pigs of the Yorkshire breed
# Method: as §1, §2, §3, §4, §5
# [6] = after treatment, 50-200 μg/kg two or three times a day intravenously
# [7] = 30 days after PTA, 100 μg/kg twice a day for 7 days
# [8] = 90 days after PTA, 100 μg/kg twice a day for 7 days
# [9] = start of treatment, minutes after the PTA (baseline)
# [10] = Group 2: 400 μg/kg every 12 h for 10 days, onset immediately at the beginning of reperfusion
# [11] = Group 3: 400 μg/kg every 12 h, onset 72 hours after the start of reperfusion
# [12] = Group 4: 400 μg/kg every 12 h, onset 5 days after the start of reperfusion
# [13] = Group 5: no reperfusion, 400 μg/kg every 12 h, onset one hour after the artery was permanently clamped
substance,measurement,setting,value
growth hormone releasing peptide-6 [GHRP-6],overall response to treatment,[1]; Grade IV heart failure patients in the transplant pool,"restore cardiac, hemodynamic, ventilatory and clinical constants"
same,Cardiac output (L/m),[1]; [6],4.3 L/m and 3.8 L/m and 2.9 L/m and 3.2 L/m (2×) and 3.08 L/m and 2.89 L/m
same,LVEF %,[1]; [6],28% and 30% and 29% and 23% and 25% and 31% and 26%
same,Oxygen consumption,[1]; [6],7.7 mL/min/kg and 7 mL/min/kg and 6.4 mL/min/kg and 7.2 mL/min/kg and 7.6 mL/min/kg and 6.6 mL/min/kg and 9.5 mL/min/kg
same,Systolic volume,"[1]; after treatment, 50-200 μg/kg two or three times a day intravenously, in mL (unit assumed)",50 and 54 and 60 and 56 and 49 and 47 and 51
same,Cardiac output (L/m),[1]; before treatment,3.2 L/m and 2.7 L/m and 1.89 L/m and 2.17 L/m and 2.41 L/m and 2.1 L/m and 1.98 L/m
same,LVEF %,[1]; before treatment,20% (2×) and 19% and 21% (2×) and 22% and 18%
same,Oxygen consumption,[1]; before treatment,4.12 mL/min/kg and 3.91 mL/min/kg and 3.05 mL/min/kg and 4.1 mL/min/kg and 3.87 mL/min/kg and 4.2 mL/min/kg and 3.63 mL/min/kg
same,Systolic volume,[1]; before treatment,29 (2×) and 30 and 31 and 35 and 25 and 27
same,LVEF %,[2]; [7],51 ± 8.6%
same,SPWT (mm),[2]; [7],11.6 ± 0.7 mm
same,SSF %,[2]; [7],35 ± 6.5%
same,SST (mm),[2]; [7],10.3 ± 1.6 mm
same,Telediastolic volumen,[2]; [7],87 ± 11 mL
same,Telesystolic volume,[2]; [7],65 ± 23 mL
same,LVEF %,[2]; [8],57 ± 6.6%
same,SPWT (mm),[2]; [8],11.3 ± 1.8 mm
same,SSF %,[2]; [8],42 ± 9.6%
same,SST (mm),[2]; [8],10.7 ± 1 mm
same,Telediastolic volumen,[2]; [8],111 ± 16 mL
same,Telesystolic volume,[2]; [8],49 ± 8 mL
same,LVEF %. Mean ± SD,"[2]; Cohort 1, acute treatment, 90 days after treatment",57.0 ± 6.61%
same,clinical evolution of the patients,"[2]; first cohort, GHRP-6 after successful angioplasty (TIMI 3)","favorable evolution, without further important complications; also recorded: progressive improvement over time"
same,LVEF %,[2]; [9],38 ± 5.9%
same,SSF %,[2]; [9],27 ± 2.6%
same,Telediastolic volumen,[2]; [9],81 ± 14 mL
same,Telesystolic volume,[2]; [9],77 ± 12 mL
same,SPWT (mm),"[2]; start of treatment, minutes after the PTA (baseline), echocardiography",10.1 ± 2 mm
same,LVEF %. Mean ± SD,"[3]; Cohort 2, late treatment, 90 days after treatment",50.8 ± 5.34%
same,interval to suspension of vasopressor amines,[3]; after start of peptide treatment,~96 h
same,LVEF,[3]; 100 μg/kg every 12 hours,LVEF of 63%; also recorded: LVEF of 48%; also recorded: LVEF of 50%; also recorded: LVEF of 52%; also recorded: LVEF of 56%; also recorded: LVEF of 45%
same,LVEF,[3]; 200 μg/kg every 12 hours,LVEF of 47%; also recorded: LVEF of 51%; also recorded: LVEF of 46%
same,patients in whom suspension of vasopressor amines was achieved,"[3]; patients evaluated, after start of peptide treatment",8 out of 10
same,surviving patients of the 13 critical patients,[3]; second cohort,12
same,LV telediastolic pressure (mmHg),[4]; [10],4.6 ± 1.1 mmHg
same,LV telesystolic pressure (mmHg),[4]; [10],80 ± 2.2 mmHg
same,LVEF %,[4]; [10],80 ± 2.5%
same,Infarction Area (%),[4]; [10],31.6 ± 5.2%
same,LV telediastolic pressure (mmHg),[4]; [11],4.4 ± 1.6 mmHg
same,LV telesystolic pressure (mmHg),[4]; [11],81 ± 3.0 mmHg
same,LVEF %,[4]; [11],77 ± 4.1%
same,Infarction Area (%),[4]; [11],35.4 ± 6.4%
same,LV telediastolic pressure (mmHg),[4]; [12],5.2 ± 0.8 mmHg
same,LV telesystolic pressure (mmHg),[4]; [12],77 ± 3.1 mmHg
same,LVEF %,[4]; [12],60 ± 6.6%
same,Infarction Area (%),[4]; [12],37.0 ± 4.3%
same,diastolic pressure compared to the placebo group,"[4]; all groups that received GHRP-6, regardless of when treatment started",significant reduction
same,LVEF rescued,"[4]; medicated from 5 days after the ischemic event, versus placebo",22%
same,decline of LVEF compared to baseline physiological conditions,[4]; start of treatment on the fifth day,21%
same,infarct size effect: treatment in parallel to reperfusion versus started 72 hours later,[4]; statistical comparison of Groups 2 and 3,no significant statistically differences
same,ventricular territory (area at risk) rescued from death,[4]; treatment initiated on the 5th day after ischemia,8%
same,reduction of the size of myocardial infarction in comparison to placebo,[4]; treatment started 72 hours after reperfusion,~13%
same,LV telediastolic pressure (mmHg),[5]; [13],5.1 ± 1.9 mmHg
same,LV telesystolic pressure (mmHg),[5]; [13],80 ± 2.6 mmHg
same,LVEF %,[5]; [13],72 ± 5.5%
same,Infarction Area (%),"[5]; Group 5: no reperfusion, 400 μg/kg every 12 h, onset one hour after the artery was permanently clamped, day 10",36.1 ± 2.8%
same,reduction of the area of ventricular death,[5]; no reperfusion,12%
same,LVEF difference with baseline conditions,"[5]; non-reflux group, without reperfusion",9%

# Source: patent US11564975B2, “Use of GHRP-6 as late cardioprotective and cardiac restoration medicament” (Centro de Ingeniería Genética y Biotecnología, priority 2018, dated 2023)
